Several values for one entry are separate records, joined by “and”; a condition that tells them apart may be missing. Identical values can stand only once.
Key:
malic enzyme = assay: Tracing hydride flux through malic enzyme with 2H tracers in 3T3-L1 cells (LC-MS labeling of malate, aspartate, NADPH, fatty acids); type: cell-based; settings: for fraction of M+1 aspartate / fraction of M+1 malate / fraction of M+2 malate: differentiating 3T3-L1 adipocytes day 5; for fatty acid 2H-labeling, M+0 fraction / fatty acid 2H-labeling, M+1 fraction / fatty acid 2H-labeling, M+2 fraction: tracer 5 days
Text: To more directly establish the contribution of malic enzyme to NADPH production, cells are provided with the ^2H-labeled succinate analogue, 2,2,3,3-^2H-dimethyl-succinate, and deuterium labeling is followed through the C2 hydride of malate to NADPH and finally to newly synthesized fatty acid molecules (FIGS. 15A-15F). Although any suitable labeled molecule may be used to trace hydride flux from malate to NADPH and subsequently into fat, it is preferred to use 2,2,3,3-^2H-dimethyl-succinate for the above purpose.
NADPH labeling at its redox active hydride was analyzed by comparing the M+1 fraction of NADPH to NADP+.
Converting the NADPH labeling fraction from 2,2,3,3-^2H-dimethyl-succinate into the fractional NADPH contribution of malic enzyme requires two important corrections: (i) fractional ^2H-labeling of malate's C2 hydride and (ii) the malic enzyme deuterium kinetic isotope effect (approximately 1.5).
2,2,3,3-^2H-dimethyl succinate was used to track hydride transfer mediated by malic enzyme. Tracer addition increased the cellular concentration of succinate without markedly perturbing other metabolite concentrations or fluxes. Labeling from 2,2,3,3-^2H-dimethyl succinate was followed through the C2 hydride of malate to NADPH and finally to newly synthesized fatty acids. NADPH labeling at its redox active hydride was analyzed by comparing the M+1 fraction of NADPH to NADP^+. […] Adjustment for the kinetic isotope effect in hydride transfer from NADPH to fat (˜1.1) (Yuan, Z. et al. (1984) “Elementary Steps in the Reaction Mechanism of Chicken Liver Fatty Acid Synthase,” 259:6748-6751) yields an associated cytosolic NADPH labeling fraction of 3.2%±0.5%, in excellent agreement with the directly measured whole cell NADPH labeling.
The NADPH labeling fraction from [2,2,3,3-^2H] dimethyl succinate was converted into the fractional NADPH contribution of malic enzyme is accordance with Equation 15. Forward flux from 2,2,3,3-^2H-succinate results in 2,3-^2H-malate, i.e., M+2 malate. The observed fraction of M+2 malate was, however, only 1.5%. The larger peak was M+1 malate (10.9%). Reverse flux through malate dehydrogenase can produce M+1 malate labeled at the C3 hydride (3-^2H-malate). As fumarate is symmetric, fumarase will interconvert 3-^2H-malate and 2-^2H-malate. Because malic enzyme will produce NADPH selectively from malate labeled at the C2 hydride, the relative abundance of 2-^2H-malate versus 3-^2H-malate was determined. 3-^2H-malate (and also 2,3-^2H-malate) yields M+1 oxaloacetate and aspartate, whereas 2-^2H-malate yields unlabeled oxaloacetate and aspartate. […] Summing 2-^2H-malate and 2,3-^2H-malate, the fraction of malate that is capable of making NADPH was 7.9%. Thus, while 2,2,3,3-^2H-dimethyl succinate labeled only approximately 3.2% of NADPH, after adjusting for the extent of malate labeling and the malic enzyme kinetic isotope effect, the fraction of NADPH generated via malic enzyme was calculated to be is approximately 60%.
4-^2H-glucose was therefore employed as a metabolic tracer. Cells were grown in 6 cm tissue culture dishes, and the labeled medium was replaced every day, and additionally 2 hours before extracting metabolites. Because labeling of glycolytic and oxPPP intermediates and the redox active hydride of NADPH reaches steady state over approximately 5 min, where for TCA intermediates this can take several hours, to ensure steady-state labeling, oxPPP tracing with 1-^2H-glucose and 1,2-^13C-glucose is performed for a minimum of 30 min and other labeling experiments for a minimum of 12 h. Metabolism is then quenched and metabolites extracted by aspirating media and immediately adding 2 mL −80° C. 80:20 methanol:water. After 20 min. of incubation on dry ice, the resulting mixture was scraped, collected into a centrifuge tube, and centrifuged at 10000 g for 5 min. Insoluble pellets were re-extracted with 1 mL −80° C. 80:20 methanol: water on dry ice. […]

[1] = tested on: methylene-THF oxidation pathway; assay: Folate pathway tracing: NADPH labeling from 2,3,3-2H-serine in 3T3-L1 cells; type: cell-based
HEK293T cells [2] = settings: non-growing HEK293T cells, 150 μM H2O2, 5 h
Procedure: Total cytosolic NADPH turnover was measured based on the absolute oxPPP flux divided by the fractional contribution of the oxPPP to total NADPH as measured using NADP2H formation from 1-^2H-glucose. Mean±SD, N=3.

oxPPP = oxPPP tracing: NADPH labeling from 1-2H-glucose in 3T3-L1 cells; type: cell-based; settings: proliferating 3T3-L1 cells, tracer fed 2 h
Procedure: In one embodiment, PPP activity is measured by incubating cultured adipocytes (e.g., 3T3-L1 adipocytes) in the presence of 1-^14C-glucose versus 6-^14C-glucose and detecting the released ^14CO2. The oxPPP releases C1 of glucose as CO2. The 6-^14C-glucose corrects for release of C1 by other pathways, because C1 and C6 are rendered identical by the triose phosphate isomerase step in glycolysis. After determining the oxPPP flux, the cells are provided with 1-^2H-glucose, which selectively labels NADPH in the first step (G6PDH) of the PPP.
Two complimentary methods were used to measure oxPPP activity in the proliferating and differentiating 3T3-L1 cells. First, cells were cultured in the presence of 1-^14C-Glucose versus 6-^14C-Glucose and the release of ^14CO2 was detected. The oxPPP releases C1 of glucose as CO2. The 6-^14C-Glucose corrects for release of C1 by other pathways, because C1 and C6 are rendered identical by the triose phosphate isomerase step in glycolysis. […] Next, cells were fed 1-^2H-Glucose, which selectively labels NADPH in the first step (G6PDH) of the oxPPP, and can therefore be used to determine the fraction of NADPH made by the oxPPP. In the proliferating cells, M+1 NADPH exceeded M+1 NADP+ by ˜16% (FIG. 18). […] In contrast, in the differentiating adipocytes, there was much less NADPH labeling from 1-^2H-Glucose. […]

HEK293T cells [3] = settings: 3 days, DMEM no serine, 5 mM glycine instead of 0.4 mM

[2H][C@@]1(O)[C@@H](CO)OC(O)[C@H](O)[C@@H]1O (stereo partly drawn) [4-^2H-glucose]
fraction of M+1 aspartate (malic enzyme): 4.3% and 4.3 ± 0.1% | fraction of M+1 malate (malic enzyme): 12.3% and 12.3 ± 0.1% | fraction of M+2 malate (malic enzyme): 0.3% and 0.3 ± 0.0% | fatty acid 2H-labeling, M+0 fraction (malic enzyme; differentiating 3T3-L1 cells): approximately 60% | fatty acid 2H-labeling, M+1 fraction (malic enzyme; differentiating 3T3-L1 cells): ~35% | fatty acid 2H-labeling, M+2 fraction (malic enzyme; differentiating 3T3-L1 cells): ~5% | fatty acid 2H-labeling, M+0 fraction (malic enzyme; proliferating 3T3-L1 cells): 100%

[2H]C([2H])(O)[C@]([2H])(N)C(=O)O [2,3,3-^2H-serine]
labeling of NADPH at its redox active hydride [1]: approximately 3%

OO [hydrogen peroxide]
total cytosolic NADPH production rate (HEK293T cells [2]): 5.5 nmol/µL/h

[2H]C1(O)OC(CO)C(O)C(O)C1O (stereo not drawn) [1-^2H-Glucose]
excess of M+1 NADPH over M+1 NADP+ (oxPPP): ~16%

[2H]C([2H])(C(=O)OC)C([2H])([2H])C(=O)OC [2,2,3,3-^2H-dimethyl succinate]
fraction of 2-2H-malate (malic enzyme; M+1 plus M+2 malate minus M+1 aspartate, differentiating 3T3-L1 adipocytes): approximately 6.4% | fraction of NADPH generated via malic enzyme (malic enzyme; after adjusting for malate labeling and malic enzyme kinetic isotope effect, normoxic differentiating 3T3-L1 adipocytes): approximately 60% | fraction of malate capable of making NADP2H (2-2H-malate plus 2,3-2H-malate) (malic enzyme; differentiating 3T3-L1 adipocytes): 7.9% | fraction of M+1 aspartate (malic enzyme): 6.0% | fraction of M+1 malate (malic enzyme): 10.9% | fraction of M+2 malate (malic enzyme): 1.5% | average hydride 2H-labeling fraction of a set of abundant fatty acids (malic enzyme; differentiating 3T3-L1 adipocytes, newly synthesized fatty acids only): 2.87%±0.31% | fatty acid 2H-labeling, M+0 fraction (malic enzyme; differentiating 3T3-L1 cells): approximately 60% | fatty acid 2H-labeling, M+1 fraction (malic enzyme; differentiating 3T3-L1 cells): ~30% | fatty acid 2H-labeling, M+2 fraction (malic enzyme; differentiating 3T3-L1 cells): ~10% | total adipocyte (whole cell) NADPH labeled at redox active hydride (malic enzyme; differentiating (day 5) 3T3-L1 adipocytes, tracer fed 24 h): 3.4%±0.3% | fatty acid 2H-labeling, M+0 fraction (malic enzyme; proliferating 3T3-L1 cells): 100%

NCC(=O)O [glycine]
cell growth (relative cell number) (HEK293T cells [3]): inhibit cell growth | relative NADPH/NADP+ ratio (HEK293T cells [3]): decrease the NADPH/NADP+ ratio

From patent US11369588B2, “NADPH production by the 10-formyl-THF pathway, and its use in the diagnosis and treatment of disease” (The Trustees of Princeton University, priority 2014, dated 2022)
